Measured values as given in the supplement of paper PMC13380429.

Columns and labels:
[1] = tested on: A549-ACE2 infected with SARS-CoV-2; assay: morphology score (similarity to uninfected cells); higher = more like uninfected cells; settings: 24 h
Vero E6 [2] = assay: cell viability relative to DMSO; higher = less toxic; settings: 72 h
U2OS [3] = assay: as above; settings: 72 h
Calu-3 [4] = assay: as above; settings: 72 h
HepG2 [5] = assay: as above; settings: 72 h
Caco-2 [6] = assay: as above; settings: 72 h
[7] = tested on: A549-ACE2 infected with SARS-CoV-2; assay: SARS-CoV-2 infection rate relative to DMSO; higher = more infection; settings: 24 h
[8] = tested on: A549-ACE2 infected with SARS-CoV-2; assay: cell count relative to DMSO; higher = less toxic; settings: 24 h
Vero E6 [9] = assay: drug sensitivity score (DSS) for viability; higher = more toxic; extreme values may be limits of the assay; settings: 72 h
U2OS [10] = assay: as above; settings: 72 h
Calu-3 [11] = assay: as above; settings: 72 h
HepG2 [12] = assay: as above; settings: 72 h
Caco-2 [13] = assay: as above; settings: 72 h
A549-ACE2 [14] = assay: phospholipidosis EC50; higher = less potent phospholipidosis inducer
A549-ACE2 [15] = assay: drug-induced phospholipidosis relative to tamoxifen; higher = more phospholipidosis
Vero E6 [16] = assay: relative viability EC50 (midpoint between 100% and the lowest measured viability); higher = less toxic; settings: 72 h
U2OS [17] = assay: as above; settings: 72 h
Calu-3 [18] = assay: as above; settings: 72 h
HepG2 [19] = assay: as above; settings: 72 h
Caco-2 [20] = assay: as above; settings: 72 h

c1cncc(CN2CCC(n3ncc4c(N5CCOCC5)nc(-c5ccc6[nH]ccc6c5)nc43)CC2)c1 [WAY-600]
Settings	SARS-CoV-2 infection rate [%]	cell count [%]	cell viability [%]	morphology score	phospholipidosis EC50 [µM]
A549-ACE2 [14], 24 h	–	–	–	–	0.65
Caco-2 [6], 1 nM	–	–	96.4	–	–
Caco-2 [6], 10 nM	–	–	95.9	–	–
Caco-2 [6], 100 nM	–	–	102	–	–
Caco-2 [6], 1000 nM	–	–	70.3	–	–
Caco-2 [6], 10000 nM	–	–	24.7	–	–
Calu-3 [4], 1 nM	–	–	101	–	–
Calu-3 [4], 10 nM	–	–	94.9	–	–
Calu-3 [4], 100 nM	–	–	95	–	–
Calu-3 [4], 1000 nM	–	–	64.8	–	–
Calu-3 [4], 10000 nM	–	–	27.3	–	–
HepG2 [5], 1 nM	–	–	106	–	–
HepG2 [5], 10 nM	–	–	112	–	–
HepG2 [5], 100 nM	–	–	98.5	–	–
HepG2 [5], 1000 nM	–	–	72.2	–	–
HepG2 [5], 10000 nM	–	–	2.5	–	–
U2OS [3], 1 nM	–	–	102	–	–
U2OS [3], 10 nM	–	–	98.1	–	–
U2OS [3], 100 nM	–	–	97.8	–	–
U2OS [3], 1000 nM	–	–	89.5	–	–
U2OS [3], 10000 nM	–	–	23	–	–
Vero E6 [2], 1 nM	–	–	103	–	–
Vero E6 [2], 10 nM	–	–	104	–	–
Vero E6 [2], 100 nM	–	–	99.4	–	–
Vero E6 [2], 1000 nM	–	–	82.2	–	–
Vero E6 [2], 10000 nM	–	–	25.2	–	–
[1], 0.1 µM	–	–	–	0.01	–
[1], 0.3 µM	–	–	–	0.46	–
[1], 1 µM	–	–	–	0.61	–
[1], 3 µM	–	–	–	0.33	–
[7], 0.1 µM	103	–	–	–	–
[7], 0.3 µM	81	–	–	–	–
[7], 1 µM	56	–	–	–	–
[7], 3 µM	35	–	–	–	–
[8], 0.1 µM	–	102	–	–	–
[8], 0.3 µM	–	101	–	–	–
[8], 1 µM	–	108	–	–	–
[8], 3 µM	–	107	–	–	–

Settings	drug sensitivity score	relative viability EC50 [µM]
Caco-2 [13]	8.2	–
Caco-2 [20]	–	1.19
Calu-3 [11]	8.1	–
Calu-3 [18]	–	1.01
HepG2 [12]	9.5	–
HepG2 [19]	–	1.44
U2OS [10]	6	–
U2OS [17]	–	2.07
Vero E6 [9]	6.9	–
Vero E6 [16]	–	1.59

drug-induced phospholipidosis [%], A549-ACE2 [15]
Settings	0.3 µM	0.833333 µM	3.33333 µM	6.66667 µM	10 µM	30 µM
24 h	18.3	55	79.8	55	39.9	10.3
48 h	16.7	40.1	86.2	–	–	–
72 h	17.1	29.6	–	–	–	–

CNCCCCOc1ccccc1Cc1ccccc1 [bifemelane]
Settings	SARS-CoV-2 infection rate [%]	cell count [%]	cell viability [%]	morphology score	phospholipidosis EC50 [µM]
A549-ACE2 [14], 24 h	–	–	–	–	5.4
A549-ACE2 [14], 48 h	–	–	–	–	5.1
A549-ACE2 [14], 72 h	–	–	–	–	6.67
Caco-2 [6], 1 nM	–	–	100	–	–
Caco-2 [6], 10 nM	–	–	101	–	–
Caco-2 [6], 100 nM	–	–	91.5	–	–
Caco-2 [6], 1000 nM	–	–	102	–	–
Caco-2 [6], 10000 nM	–	–	89.3	–	–
Calu-3 [4], 1 nM	–	–	112	–	–
Calu-3 [4], 10 nM	–	–	104	–	–
Calu-3 [4], 100 nM	–	–	95.8	–	–
Calu-3 [4], 1000 nM	–	–	90.1	–	–
Calu-3 [4], 10000 nM	–	–	104	–	–
HepG2 [5], 1 nM	–	–	98.7	–	–
HepG2 [5], 10 nM	–	–	101	–	–
HepG2 [5], 100 nM	–	–	89.5	–	–
HepG2 [5], 1000 nM	–	–	92.7	–	–
HepG2 [5], 10000 nM	–	–	85	–	–
U2OS [3], 1 nM	–	–	96.6	–	–
U2OS [3], 10 nM	–	–	91.1	–	–
U2OS [3], 100 nM	–	–	102	–	–
U2OS [3], 1000 nM	–	–	96.5	–	–
U2OS [3], 10000 nM	–	–	92.6	–	–
Vero E6 [2], 1 nM	–	–	109	–	–
Vero E6 [2], 10 nM	–	–	102	–	–
Vero E6 [2], 100 nM	–	–	96.8	–	–
Vero E6 [2], 1000 nM	–	–	100	–	–
Vero E6 [2], 10000 nM	–	–	89.5	–	–
[1], 0.3 µM	–	–	–	-0.03	–
[1], 3 µM	–	–	–	0.43	–
[1], 10 µM	–	–	–	0.7	–
[1], 30 µM	–	–	–	0.69	–
[7], 0.3 µM	101	–	–	–	–
[7], 3 µM	96	–	–	–	–
[7], 10 µM	43	–	–	–	–
[7], 30 µM	16	–	–	–	–
[8], 0.3 µM	–	100	–	–	–
[8], 3 µM	–	106	–	–	–
[8], 10 µM	–	115	–	–	–
[8], 30 µM	–	110	–	–	–

Settings	drug sensitivity score	relative viability EC50 [µM]
Caco-2 [13]	0	–
Caco-2 [20]	–	> 10
Calu-3 [11]	0	–
Calu-3 [18]	–	> 10
HepG2 [12]	0.6	–
HepG2 [19]	–	> 10
U2OS [10]	0	–
U2OS [17]	–	> 10
Vero E6 [9]	0	–
Vero E6 [16]	–	> 10

drug-induced phospholipidosis [%], A549-ACE2 [15]
Settings	0.3 µM	0.833333 µM	3.33333 µM	6.66667 µM	10 µM	30 µM
24 h	0.28	1.11	22.9	61.8	79.9	96.4
48 h	-0.08	-3.86	22.6	74.8	87.4	108
72 h	3.27	-0.257	16.8	61.6	86.2	116

CC/C(=C(/c1ccc(OCCN(C)C)cc1)c1cccc(O)c1)c1ccccc1 [droloxifene]
Settings	SARS-CoV-2 infection rate [%]	cell count [%]	cell viability [%]	morphology score	phospholipidosis EC50 [µM]
A549-ACE2 [14], 24 h	–	–	–	–	1.57
A549-ACE2 [14], 48 h	–	–	–	–	3.25
A549-ACE2 [14], 72 h	–	–	–	–	3.45
Caco-2 [6], 1 nM	–	–	100	–	–
Caco-2 [6], 10 nM	–	–	97.1	–	–
Caco-2 [6], 100 nM	–	–	92.5	–	–
Caco-2 [6], 1000 nM	–	–	97.4	–	–
Caco-2 [6], 10000 nM	–	–	43.8	–	–
Calu-3 [4], 1 nM	–	–	100	–	–
Calu-3 [4], 10 nM	–	–	96.2	–	–
Calu-3 [4], 100 nM	–	–	98.7	–	–
Calu-3 [4], 1000 nM	–	–	87.1	–	–
Calu-3 [4], 10000 nM	–	–	11	–	–
HepG2 [5], 1 nM	–	–	87.1	–	–
HepG2 [5], 10 nM	–	–	101	–	–
HepG2 [5], 100 nM	–	–	96.9	–	–
HepG2 [5], 1000 nM	–	–	109	–	–
HepG2 [5], 10000 nM	–	–	48.8	–	–
U2OS [3], 1 nM	–	–	97.7	–	–
U2OS [3], 10 nM	–	–	91.5	–	–
U2OS [3], 100 nM	–	–	102	–	–
U2OS [3], 1000 nM	–	–	96	–	–
U2OS [3], 10000 nM	–	–	75.5	–	–
Vero E6 [2], 1 nM	–	–	95.8	–	–
Vero E6 [2], 10 nM	–	–	99.1	–	–
Vero E6 [2], 100 nM	–	–	93.7	–	–
Vero E6 [2], 1000 nM	–	–	95.8	–	–
Vero E6 [2], 10000 nM	–	–	92.6	–	–
[1], 0.3 µM	–	–	–	0.24	–
[1], 3 µM	–	–	–	0.61	–
[1], 10 µM	–	–	–	0.81	–
[1], 30 µM	–	–	–	0.15	–
[7], 0.3 µM	93	–	–	–	–
[7], 3 µM	64	–	–	–	–
[7], 10 µM	13	–	–	–	–
[7], 30 µM	39	–	–	–	–
[8], 0.3 µM	–	102	–	–	–
[8], 3 µM	–	113	–	–	–
[8], 10 µM	–	110	–	–	–
[8], 30 µM	–	102	–	–	–

Settings	drug sensitivity score	relative viability EC50 [µM]
Caco-2 [13]	3.4	–
Caco-2 [20]	–	2.8
Calu-3 [11]	7.1	–
Calu-3 [18]	–	2.02
HepG2 [12]	2.2	–
HepG2 [19]	–	3.84
U2OS [10]	1.5	–
U2OS [17]	–	> 10
Vero E6 [9]	0	–
Vero E6 [16]	–	> 10

drug-induced phospholipidosis [%], A549-ACE2 [15]
Settings	0.3 µM	0.833333 µM	3.33333 µM	6.66667 µM	10 µM	30 µM
24 h	2.02	14.1	52.7	74.9	75.2	51.7
48 h	8.07	8.41	50.9	81.7	87.7	–
72 h	3.83	3.63	41.9	82	85.5	–
